One data set concerns muscarinic receptor. In words: Interaction with muscarinic receptor (displacement of 3H-QNB bound to rat cerebral cortex receptors). In kind it is binding. Details: unit not given here. (Displacement assays read how much labelled ligand stays bound in the presence of the test substance.)
The test system of the next data set is Gastric acid secretion. In words: Gastric acid secretion in the pylorus ligated rat (antisecretory activity). In kind it is in vivo, rat (male Sprague-Dawley). The note with it: 4 hours. On the procedure:
Gastric acid secretion in the pylorus ligated rat
Male Sprague-Dawley rats weighing 150.-+.5 g fasting since 48 hours were used. Pylorus ligation was performed for 4 hours. The products under exam were administered by the oral route immediately after the ligation.

The nature of a further data set: in vivo. To be noted: mouse, po, Swiss mice, 14 days observation. On the procedure:
The acute toxicity was determined by administering by oral route the substances under exam to Swiss mice; average weight 20.-+.2 g. The observation period was 14 days. 10 Animals were used for each tested dose.

The subject of another data set is Carbachole salivation. The experiment in a line: Carbachole salivation in the rat. In kind it is in vivo, rat (male Sprague-Dawley). To be noted: 62.5 mg/kg p.o., one hour before carbachole 1 mg/kg i.p. On the procedure: Carbachole salivation in the rat
The method cited by R. Turner: "Parasympatholytic Agents" in R. Turner "Screening Methods in Pharmacology" pag. 137. Academic Press. New York and London 1965, with slight changes, was used.
Male Sprague-Dawley rats, average weight 150.-+.5 g, fasting since 24 hours, were used.
The salivation was induced by the intraperitoneal administration of 1 mg/kg of carbachole.
The products under exam were administered orally one hour before the cholinergic stimulus.

[1] abbreviates: concentration 10^-5 (unit not given).
The mark [2] stands for this setting: concentration 10^-6 (unit not given).
[3] abbreviates: concentration 10^-7 (unit not given).

For `CC(C(=O)N1c2ccccc2C(=O)Nc2cccnc21)N1CCCCC1` (stereo not shown) [Compound 1, 11-[2-(Piperidin-1-yl)propionyl]-5,11-dihydro-6H-pyrido-[2,3-b][1,4]benzodiazepin-6-one], the “Interaction with muscarinic receptor” value with muscarinic receptor (setting [1]) is listed as 46.6; with muscarinic receptor (setting [2]), 3.96; in the data set with muscarinic receptor (setting [3]), 0. In addition, the “% Antisecretory activity” value is given as 10.3% in the data set with Gastric acid secretion (6.25 mg/kg p.o.), 36.3% with Gastric acid secretion (12.5 mg/kg p.o.) and 71.3% in the data set with Gastric acid secretion (25 mg/kg p.o.). For the same compound, the LD50 at 336 h in the data set “in vivo” was more than 500 mg/kg. Further, in the data set on Carbachole salivation, the “Carbachol salivation - % protection” value was 0%.

With `O=C1Nc2cccnc2N(C(=O)CN2CCCCCC2)c2ccccc21` [Compound 2, 11-[2-(Hexamethylenimino)acetyl]-5,11-dihydro-6H-pyrido[2,3-b][1,4]benzodiazepin-6-one], the figures for the “Interaction with muscarinic receptor” value in the data set on muscarinic receptor (setting [1]), with muscarinic receptor (setting [2]) and with muscarinic receptor (setting [3]) were 93.3, 49.7 and 12.8, respectively. Besides, the “% Antisecretory activity” value is given as 11.6% in the data set on Gastric acid secretion (6.25 mg/kg p.o.), 33.7% in the data set with Gastric acid secretion (12.5 mg/kg p.o.) and 55.2% with Gastric acid secretion (25 mg/kg p.o.). Further, the LD50 at 336 h in “in vivo” is more than 500 mg/kg. For the same compound, in the data set with Carbachole salivation, the “Carbachol salivation - % protection” value turned out to be 100%.

As for `O=C1Nc2cccnc2N(C(=O)CCN2CCCCCC2)c2ccccc21` [Compound 4, 11-[3-(Hexamethylenimino)propionyl]-5,11-dihydro-6H-pyrido[2,3-b][1,4]benzodiazepin-6-one], the “Interaction with muscarinic receptor” value in the data set on muscarinic receptor (setting [1]) was 94.4; with muscarinic receptor (setting [2]), 54.3; in the data set with muscarinic receptor (setting [3]), 3.0. Also, the figures for the “% Antisecretory activity” value with Gastric acid secretion (6.25 mg/kg p.o.), in the data set with Gastric acid secretion (12.5 mg/kg p.o.) and in the data set on Gastric acid secretion (25 mg/kg p.o.) were 21.5%, 50.2% and 64.1%, respectively. Further, the LD50 at 336 h in the data set “in vivo” is less than 500 mg/kg. Further, the “Carbachol salivation - % protection” value in the data set with Carbachole salivation is 50%.

For `CC1CCCCN1CC(=O)N1c2ccccc2NC(=O)c2cccnc21` (stereo not shown) [Compound 5, 11-[2-(2-Methylpiperidin-1-yl)acetyl]-6,11-dihydro-5H-pyrido[2,3-b][1,5]benzodiazepin-5-one], the “Interaction with muscarinic receptor” value in the data set with muscarinic receptor (setting [1]) came to 96.9; with muscarinic receptor (setting [2]), 71.7; with muscarinic receptor (setting [3]), 14.6. The “% Antisecretory activity” value with Gastric acid secretion (6.25 mg/kg p.o.) turned out to be 18.7%; in the data set with Gastric acid secretion (12.5 mg/kg p.o.), 58.4%; in the data set with Gastric acid secretion (25 mg/kg p.o.), 66.7%. In “in vivo”, this compound registered an LD50 at 336 h of less than 500 mg/kg. The “Carbachol salivation - % protection” value in the data set on Carbachole salivation amounted to 100%.

For the compound `CN1CCN(CC(=O)N2c3ccccc3C(=S)Nc3cccnc32)CC1` [Compound 6, 11-[2-(4-Methylpiperazin-1-yl)acetyl]-5,11-dihydro-6H-pyrido[2,3-b][1,4]benzodiazepin-6-thione], the “Interaction with muscarinic receptor” value in the data set with muscarinic receptor (setting [1]) came to 85.5; with muscarinic receptor (setting [2]), 43.9; in the data set with muscarinic receptor (setting [3]), 7.5. Besides, the “% Antisecretory activity” value in the data set on Gastric acid secretion (6.25 mg/kg p.o.) is 7.2%; with Gastric acid secretion (12.5 mg/kg p.o.), 25.8%; with Gastric acid secretion (25 mg/kg p.o.) it was 51.4%. In addition, in “in vivo”, the LD50 at 336 h is less than 500 mg/kg. The “Carbachol salivation - % protection” value in the data set on Carbachole salivation is recorded as 10%.

Turning to `CC1(C)CCCN(CC(=O)N2c3ccccc3C(=O)Nc3cccnc32)C1` [Compound 10], the “Interaction with muscarinic receptor” value is given as 30.2 in the data set with muscarinic receptor (setting [1]), 0.2 in the data set with muscarinic receptor (setting [2]) and 0 with muscarinic receptor (setting [3]). Besides, the entries for the “% Antisecretory activity” value with Gastric acid secretion (6.25 mg/kg p.o.), with Gastric acid secretion (12.5 mg/kg p.o.) and in the data set on Gastric acid secretion (25 mg/kg p.o.) were 12.4%, 24.7% and 41.5%, respectively. In “in vivo”, this compound had an LD50 at 336 h of more than 500 mg/kg. The “Carbachol salivation - % protection” value in the data set with Carbachole salivation came to 0%.

On to `CN1CCN(CC(=O)N2c3ccccc3C(=O)Nc3cccnc32)CC1` [P, Pirenzepine, reference compound], for which the “% Antisecretory activity” value in the data set with Gastric acid secretion (6.25 mg/kg p.o.) is listed as 7.9%; in the data set with Gastric acid secretion (12.5 mg/kg p.o.), 46.0%; in the data set on Gastric acid secretion (25 mg/kg p.o.) it was 71.5%. Moreover, in the data set on Carbachole salivation, the “Carbachol salivation - % protection” value was determined as 10%.

As usually defined, the LD50 is the dose at which mortality reaches 50%.

The values above are taken from patent US4556653A, “Pyrido[1,5]benzodiazepinone derivatives and pharmacological activities thereof” (Dompe' Farmaceutica S.p.A., priority 1983, dated 1985).
